Legend:
[1] = test system: passive cutaneous anaphylaxis; assay: Inhibition of passive cutaneous anaphylaxis (PCA) in the rat, test substance p.o.; assay type: in vivo, rat (Sprague-Dawley); details: po, 50% reduction in dye concentration vs control, read-out: ED50 inhibiting effect, passive cutaneous anaphylaxy
Method: (§1) 2. Determining the inhibition of passive cutaneous anaphylaxis (PCA) and the inhibition of anaphylactoid cutaneous reactions induced by histamine and by serotonin.
For the preparation of an antiovalbumin serum, rich in IgE, which is used in the test, according to the method of Lehrer et al (J. Immunol. 116, (1976) 178-182) and Pauwels et al (Ann. Immunol. 230C., (1979), 49-58), Sprague-Dawley rats are sensitized by i.p. injection of 1 mg ovalbumin and 1 ml Bordetella pertussis suspension (vaxicoq, Merieux 3×10^10 organisms/ml). After 20 days the animals are given an injection of 10 mg ovalbumin in the same way, but without any additive. After a further 4 days, blood is removed from the animals and the blood is centrifuged. The antiserum thus obtained is stored at -20° C. and adjusted according to the method of Goose et al (Immunology 16 (1968) 749-760).
(§2) The determination of the inhibition of passive cutaneous anaphylaxis and the anaphylactoid cutaneous reactions induced by histamine and by serotonin, are carried out, as set forth below, according to the method of Martin and Baggiolini (Naunyn-Schmeiedeberg's Archives of Pharmacology 316 (1981) 186-189).
(§3) For passive sensitizing against ovalbumin, male Sprague-Dawley rates (body weight 150 to 165 g) are injected intradermally on a shaved part of the back with 0.05 ml of a 1:2.5 dilution of antiovalbumin serum, rich in IgE, in physiological sodium chloride solution.
(§4) 24 hours after the sensitizing, solutions of the test substances are administered orally to the rats. For comparison, a control group receives only the solvent.
(§5) Immediately thereafter 1.25 mg (-~8 mg/kg) ovalbumin to trigger the anaphylactic reaction, and 4 mg (-~26.4 mg/kg) of a blue dye dissolved in 0.5 ml phosphate-buffered physiological sodium chloride solution are administered i.v. to the animals.
(§6) After 30 minutes the animals are killed, the skin is removed and in the individual blue patches the quantity of dye contained therein is determined separately. According to the method of Mordelet-Danbrine et al (Therapie 29 (1974) 851-862) the dye is extracted from the individual patches in each case with 2.5 ml dimethylformamide at a temperature of 37° C. for 4 days and the quantity of dye obtained in each case in the extraction solution is determined by spectrophotometric measurement. The doses of the test substances which cause a 50% reduction in the dye concentration compared with the control group are calculated as ED50 values.

[2] = test system: peritonal mast cells of rats; assay: In vitro inhibition of anaphylactically caused histamine release from peritonal mast cells of rats; assay type: cell-based, rat (Sprague-Dawley); details: Rattus norvegicus, Mast cell; ovalbumin trigger, 1 minute preincubation at 37° C.; read-out: EC50 in vitro inhibiting effect with respect to anaphylactically caused histamine release from mast cells of the rat
Method: 3. Determining the inhibiting effect in vitro on the release of histamine, caused anaphylactically, from peritonal mast cells of rats.
In order to obtain the peritonal mast cells, Sprague-Dawley rats are killed by inhalation of ether and immediately after cessation of breathing has occurred, 15 ml of a cold solution of 1 mg/ml human serum albumin in phosphate-buffered sodium chloride solution are injected into the abdominal cavity. The peritonal fluid is then removed and the mast cells are separated therefrom by centrifuging and are suspended in phosphate-buffered sodium chloride solution, whereafter the suspension is adjusted to a mast cell concentration of 5×10^5 per ml.
The mast cell suspension, divided up into samples each of 100 μl, is introduced into test-tubes and each sample, for passive sensitizing, is mixed with 100 μl of a 1:10 dilution of IgE-rich antiovalbumin serum in physiological sodium chloride solution (prepared according to the method described above) and is incubated for 30 minutes at a temperature of 37° C. (water bath). For the removal of unbonded IgE, the mast cells are then washed with 2 ml phosphate-buffered sodium chloride solution, centrifuged, and the supernatant fluid is discarded. Then the mast cells are incubated for 1 minute at 37° C. with 200 μl of a solution of the test substance in phosphate-buffered sodium chloride solution. A control group is only incubated with the same quantity of phosphate-buffered sodium chloride solution which is free of test substance.
After an incubation period of 3 minutes at 37° C., the reaction is stopped by rapid cooling in an ice bath. Then centrifuging takes place, the supernatant fluid is decanted and the histamine content therein is determined directly, without further extraction, spectrofluorimetrically according to the method of Shore (J. Pharmac. Exp. Ther. 127 (1959) 182-186).
For the extraction of the residual histamine still contained in the mast cells of the undecanted material, the latter is mixed with 2 ml phosphate-buffered sodium chloride solution and the suspension is heated in a boiling water bath. Then centrifuging takes place, the supernatant fluid is decanted and therein the residual histamine extracted from the mast cells is determined spectrofluorimetrically.
For each sample, the quantity of the released histamine is calculated as percentage proportion of the overall quantity of histamine (=total of released histamine and residual histamine retained in the mast cells).
The EC50 values are calculated to be those molar concentrations of the test substances in the respective test solutions which produce a 50% inhibition of the histamine release compared to the control group.

[3] = Acute 8-day toxicity, single i.p. application to male mice (LD50); details: in vivo, ip, mouse i.p., 8 days
Method: The acute 8-day toxicity is determined after a single application i.p. to male mice (body weight 18 to 22 g). The mortality is noted for 8 days. The results are calculated as LD50 values, i.e. the dose which kills 50% of the animals.

[4] = test system: serotonin induced anaphylactoidal reaction; assay: Inhibition of serotonin-induced anaphylactoid cutaneous reaction in the rat, test substance p.o.; assay type: in vivo, rat (Sprague-Dawley); details: po, 1 μg serotonin intradermally, read-out: ED50 inhibiting effect, serotonin induced anaphylactoidal reaction
Method: as §1, §2, §3, §4
(§7) To trigger the histamine-induced and serotonin-induced anaphylactoid reactions of the skin, the animals are injected intradermally 30 minutes later on a second shaved part of the back with a solution of 40 μg histamine in 0.05 ml physiological sodium chloride solution and on a third shaved part of the back with a solution of 1 μg serotonin in 0.05 physiological sodium chloride solution.
as §5, §6

[5] = test system: histamine-induced anaphylactoidal reaction; assay: Inhibition of histamine-induced anaphylactoid cutaneous reaction in the rat, test substance p.o.; assay type: in vivo, rat (Sprague-Dawley); details: po, 40 μg histamine intradermally, read-out: ED50 inhibiting effect, histamine-induced anaphylactoidal reaction
Method: as §1, §2, §3, §4, §7, §5, §6

| SMILES | ED50 [1] | EC50 [2] | LD50 at 192 h [3] | ED50 [4] | ED50 [5] |
| --- | --- | --- | --- | --- | --- |
| Cc1ccnc(N2CCN(CCCn3c(=O)cc(C)n3-c3ccc(Cl)cc3)CC2)c1 [Example 18] | 4.7 mg/kg | 230 µM | 205 mg/kg | 6.2 mg/kg | 6.6 mg/kg |
| COc1ccc(-n2c(C)cc(=O)n2CCCN2CCN(c3cc(C)ccn3)CC2)cc1 [Example 47] | 5.96 mg/kg |  | 190 mg/kg | 6.8 mg/kg | 6.8 mg/kg |
| Cc1cc(=O)n(CCCN2CCN(c3ccccn3)CC2)n1-c1ccccc1 [Example 45] | 6.3 mg/kg |  | 240 mg/kg | 8 mg/kg | 11 mg/kg |
| Cc1ccnc(N2CCN(CCCn3c(=O)cc(C)n3-c3ccc(O)cc3)CC2)c1 [Example 7, 5-methyl-1-(4-hydroxyphenyl)-2-{3-[4-(4-methyl-pyrid-2-yl)-piperazin-1-yl]-propyl}-pyrazolin-3-one] | 6.6 mg/kg |  | 178 mg/kg | 13 mg/kg | 7.9 mg/kg |
| CCCc1cc(=O)n(CCCN2CCN(c3ccc(F)cc3)CC2)n1-c1ccc(Cl)c(Cl)c1 [Example 22] |  | 43 µM |  |  |  |
| CC(=O)c1ccc(-n2c(C)cc(=O)n2CCCN2CCN(c3cc(C)ccn3)CC2)cc1 [Example 44] | 5.4 mg/kg |  | 170 mg/kg | 8.9 mg/kg | 3.15 mg/kg |
| CCc1cc(=O)n(CCCN2CCN(c3cc(C)ccn3)CC2)n1-c1ccc(Cl)cc1 [Example 23] | 7.85 mg/kg | 140 µM | 168 mg/kg | 5.8 mg/kg | 4.7 mg/kg |
| Cc1ccnc(N2CCN(CCCn3c(=O)cc(C)n3-c3ccc([N+](=O)[O-])cc3)CC2)c1 [Example 2, 5-methyl-1-(4-nitrophenyl)-2-{3-[4-(4-methyl-pyrid-2-yl)-piperazin-1-yl]-propyl}-pyrazolin-3-one] | 1.9 mg/kg |  | 90 mg/kg | 2.7 mg/kg | 1.75 mg/kg |
| CCc1cc(=O)n(CCCN2CCN(c3cc(C)ccn3)CC2)n1-c1ccc([N+](=O)[O-])cc1 [Example 38] | 3.18 mg/kg |  | 93 mg/kg | 5.54 mg/kg | 3.88 mg/kg |
| CCOc1ccc(-n2c(C)cc(=O)n2CCCN2CCN(c3cc(Cl)ccc3C)CC2)cc1 [Example 30] |  | 18 µM |  |  |  |
| CCCc1cc(=O)n(CCCN2CCN(c3cc(C)ccn3)CC2)n1-c1ccccc1 [Example 13] | 2.94 mg/kg |  | 96 mg/kg | 1.87 mg/kg | 5.48 mg/kg |
| Cc1ccnc(N2CCN(CCCCn3c(=O)cc(C)n3-c3ccccc3)CC2)c1 [Example 4, 5-methyl-1-phenyl-2-{4-[4-(4-methyl-pyrid-2-yl)-piperazin-1-yl]-butyl}-pyrazolin-3-one] | 3.9 mg/kg |  | 130 mg/kg | 5.9 mg/kg | 7.98 mg/kg |
| O=c1cc(C2CC2)n(-c2ccccc2)n1CCCN1CCN(c2ccc(F)cc2)CC1 [Example 43] | 2.45 mg/kg |  |  | 3.25 mg/kg | 5.79 mg/kg |
| COc1ccc(N2CCN(CCCn3c(=O)cc(C)n3-c3ccc(C)cc3Cl)CC2)cc1 [Example 20] |  | 10 µM |  |  |  |
| Cc1cc(=O)n(CCCN2CCN(c3ccccc3)CC2)n1-c1ccccc1 [Example 11] | 4.65 mg/kg |  | 108 mg/kg | 10.2 mg/kg | 10.1 mg/kg |
| COC(=O)c1ccccc1-n1c(C)cc(=O)n1CCCN1CCN(c2cc(C)ccn2)CC1 [Example 17] | 5 mg/kg |  | 342 mg/kg | 10.8 mg/kg | 12.6 mg/kg |
| COc1ccc(-n2c(C)cc(=O)n2CCCN2CCN(c3cc(C)ccn3)CC2)cc1OC [Example 56] | 5.7 mg/kg |  | > 350 mg/kg | 6.29 mg/kg | 3.85 mg/kg |
| Cc1ccnc(N2CCN(CCCn3c(=O)cc(C)n3-c3ccc(C#N)cc3)CC2)c1 [Example 46] | 6.3 mg/kg |  | 101 mg/kg | 8 mg/kg | 2.8 mg/kg |
| Cc1ccnc(N2CCN(CCCn3c(=O)cc(C4CCCC4)n3-c3ccccc3)CC2)c1 [Example 58] | 1.17 mg/kg | 120 µM | 95 mg/kg | 1.41 mg/kg | 10 mg/kg |
| CCCCCCc1cc(=O)n(CCCN2CCN(c3cc(C)ccn3)CC2)n1-c1ccccc1 [Example 26] | 6.75 mg/kg | 35 µM | 72.5 mg/kg | 7.8 mg/kg | 6.3 mg/kg |
| COc1ccccc1-n1c(C)cc(=O)n1CCCN1CCN(c2cc(C)ccn2)CC1 [Example 21] | 7.1 mg/kg |  | 252 mg/kg | 8.3 mg/kg | 5.1 mg/kg |
| Cc1ccc(-n2c(C)cc(=O)n2CCCN2CCN(c3cc(C)ccn3)CC2)cc1 [Example 55] | 7.26 mg/kg |  | 135 mg/kg | 11.8 mg/kg | 11.9 mg/kg |
| Cc1ccnc(N2CCN(CCCn3c(=O)cc(C4CCCCC4)n3-c3ccccc3)CC2)c1 [Example 15] | 1.9 mg/kg | 14 µM | 90 mg/kg | 1.7 mg/kg | 4.4 mg/kg |
| O=c1cc(C2CCCCC2)n(-c2ccccc2)n1CCCN1CCN(c2ccc(F)cc2)CC1 [Example 49] | 4.9 mg/kg | 57 µM | 96 mg/kg | 3.59 mg/kg | 10.6 mg/kg |
